Data from ChEMBL document CHEMBL3885861, “Open TG-GATES”.

Species on record: Rattus norvegicus
Assay: Open TG-GATES - Regimen: Single
Type: toxicity, organism-based, Sprague-Dawley
Set-up: regimen Single, gender Male, age 6 weeks
Conditions: in vivo, po, route gavage; for Hb / Ht / Lym / MCH / MCHC / MCV / Mono / Neu / PT / Plat / RBC / Ret / WBC / APTT / Bas / Eos / Fbg: tissue Blood; for KIDNEY_L / KIDNEY_R / KIDNEY_TOTAL: tissue Kidney; for LIVER: tissue Liver; for ALP / ALT / AST / BUN / CRE / Ca / Cl / DBIL / GLC / IP / K / LDH / Na / PL / RALB / TBIL / TC / TP / gamma-GTP: tissue Plasma
[1] = 50 mg/kg, 6 h, dose level Middle
[2] = 50 mg/kg, 9 h, dose level Middle
[3] = 50 mg/kg, 24 h, dose level Middle
[4] = 150 mg/kg, 3 h, dose level High
[5] = 150 mg/kg, 6 h, dose level High
[6] = 150 mg/kg, 9 h, dose level High
[7] = 150 mg/kg, 24 h, dose level High

## O=P1(N(CCCl)CCCl)NCCCO1 (configuration not stated) [CYCLOPHOSPHAMIDE ANHYDROUS]
[1]
  Hb: 12.8 g/dL
  Ht: 37.8%
  Lym: 73.2%
  MCH: 21.1 pg
  MCHC: 33.7%
  MCV: 62.7 fL
  Mono: 2.6%
  Neu: 22.8%
  PT: 14.2 s
  Plat: 115.3 x10_4/uL
  RBC: 603.6 x10_4/ul
  Ret: 8.9%
  WBC: 84.9 x10_2/uL
  KIDNEY_L: 0.9 g
  KIDNEY_R: 0.8 g
  KIDNEY_TOTAL: 1.7 g
  LIVER: 7.5 g
  ALP: 1677 IU/L
  ALT: 35 IU/L
  AST: 72.8 IU/L
  BUN: 9.6 mg/dL
  CRE: 0.2 mg/dL
  Ca: 10.9 mg/dL
  Cl: 106.2 meq/L
  DBIL: 0.016 mg/dL
  GLC: 171.6 mg/dL
  IP: 9.9 mg/dL
  K: 4.4 meq/L
  LDH: 65 IU/L
  Na: 141.4 meq/L
  PL: 134 mg/dL
  RALB: 2.5 g/dL
  TBIL: 0.064 mg/dL
  TC: 72.2 mg/dL
  TP: 5.4 g/dL
  gamma-GTP: 1.4 IU/L
[2]
  TERMINAL_BW: 187.4 g
  APTT: 17.8 s
  Bas: 0%
  Eos: 1%
  Fbg: 284.8 mg/dL
  Hb: 12.7 g/dL
  Ht: 37.5%
  Lym: 76%
  MCH: 20.9 pg
  MCHC: 33.8%
  MCV: 61.8 fL
  Mono: 2%
  Neu: 21%
  PT: 14.1 s
  Plat: 112.4 x10_4/uL
  RBC: 606.8 x10_4/ul
  Ret: 9.1%
  WBC: 56.3 x10_2/uL
  KIDNEY_L: 0.8 g
  KIDNEY_R: 0.8 g
  KIDNEY_TOTAL: 1.7 g
  LIVER: 7.1 g
  ALP: 1578.4 IU/L
  ALT: 28.4 IU/L
  AST: 67.4 IU/L
  BUN: 9.6 mg/dL
  CRE: 0.2 mg/dL
  Ca: 10.6 mg/dL
  Cl: 106.8 meq/L
  DBIL: 0.016 mg/dL
  GLC: 177.2 mg/dL
  IP: 10.7 mg/dL
  K: 4.1 meq/L
  LDH: 55.4 IU/L
  Na: 142.8 meq/L
  PL: 125.4 mg/dL
  RALB: 2.5 g/dL
  TBIL: 0.066 mg/dL
  TC: 73.8 mg/dL
  TP: 5.3 g/dL
  gamma-GTP: 1.6 IU/L
[3]
  TERMINAL_BW: 200.3 g
  APTT: 24.4 s
  Bas: 0%
  Eos: 1%
  Fbg: 285.8 mg/dL
  Hb: 13 g/dL
  Ht: 38.7%
  Lym: 80.8%
  MCH: 20.8 pg
  MCHC: 33.5%
  MCV: 62 fL
  Mono: 2.4%
  Neu: 15.4%
  PT: 14.5 s
  Plat: 114 x10_4/uL
  RBC: 624.4 x10_4/ul
  Ret: 5.5%
  WBC: 30.3 x10_2/uL
  KIDNEY_L: 0.9 g
  KIDNEY_R: 0.9 g
  KIDNEY_TOTAL: 1.8 g
  LIVER: 8.4 g
  ALP: 1583 IU/L
  ALT: 36.8 IU/L
  AST: 68.8 IU/L
  BUN: 14 mg/dL
  CRE: 0.2 mg/dL
  Ca: 11 mg/dL
  Cl: 106 meq/L
  DBIL: 0.026 mg/dL
  GLC: 176.4 mg/dL
  IP: 8.3 mg/dL
  K: 4.4 meq/L
  LDH: 101.8 IU/L
  Na: 140.4 meq/L
  PL: 143.2 mg/dL
  RALB: 2.5 g/dL
  TBIL: 0.066 mg/dL
  TC: 79.4 mg/dL
  TP: 5.4 g/dL
  gamma-GTP: 1 IU/L
[4]
  TERMINAL_BW: 193.2 g
  APTT: 16.8 s
  Bas: 0%
  Eos: 0.8%
  Fbg: 274.6 mg/dL
  Hb: 12.8 g/dL
  Ht: 38.2%
  Lym: 77.6%
  MCH: 21.2 pg
  MCHC: 33.3%
  MCV: 63.5 fL
  Mono: 2.8%
  Neu: 18%
  PT: 14 s
  Plat: 118.8 x10_4/uL
  RBC: 602 x10_4/ul
  Ret: 9.4%
  WBC: 95.6 x10_2/uL
  KIDNEY_L: 0.9 g
  KIDNEY_R: 0.9 g
  KIDNEY_TOTAL: 1.7 g
  LIVER: 8 g
  ALP: 1465.2 IU/L
  ALT: 33.2 IU/L
  AST: 72 IU/L
  BUN: 11.2 mg/dL
  CRE: 0.2 mg/dL
  Ca: 10.9 mg/dL
  Cl: 105.2 meq/L
  DBIL: 0.018 mg/dL
  GLC: 176 mg/dL
  IP: 8.6 mg/dL
  K: 4.1 meq/L
  LDH: 75.6 IU/L
  Na: 140 meq/L
  PL: 136.8 mg/dL
  RALB: 2.5 g/dL
  TBIL: 0.064 mg/dL
  TC: 71 mg/dL
  TP: 5.3 g/dL
  gamma-GTP: 1 IU/L
[5]
  TERMINAL_BW: 185.5 g
  APTT: 17.1 s
  Bas: 0%
  Eos: 1%
  Fbg: 284.8 mg/dL
  Hb: 13.2 g/dL
  Ht: 39.4%
  Lym: 71.4%
  MCH: 20.6 pg
  MCHC: 33.6%
  MCV: 61.3 fL
  Mono: 2.4%
  Neu: 25%
  PT: 14.2 s
  Plat: 119.4 x10_4/uL
  RBC: 643 x10_4/ul
  Ret: 9%
  WBC: 86.7 x10_2/uL
  KIDNEY_L: 0.8 g
  KIDNEY_R: 0.8 g
  KIDNEY_TOTAL: 1.7 g
  LIVER: 6.9 g
  ALP: 1365.8 IU/L
  ALT: 34.8 IU/L
  AST: 76.8 IU/L
  BUN: 12 mg/dL
  CRE: 0.2 mg/dL
  Ca: 10.8 mg/dL
  Cl: 107 meq/L
  DBIL: 0.012 mg/dL
  GLC: 184.4 mg/dL
  IP: 10.2 mg/dL
  K: 4.5 meq/L
  LDH: 64.8 IU/L
  Na: 143.2 meq/L
  PL: 138.8 mg/dL
  RALB: 2.5 g/dL
  TBIL: 0.062 mg/dL
  TC: 77.4 mg/dL
  TP: 5.5 g/dL
  gamma-GTP: 1.2 IU/L
[6]
  TERMINAL_BW: 190.2 g
  APTT: 16.2 s
  Bas: 0%
  Eos: 0.8%
  Fbg: 293.4 mg/dL
  Hb: 13.1 g/dL
  Ht: 39.2%
  Lym: 79.4%
  MCH: 20.5 pg
  MCHC: 33.5%
  MCV: 61.1 fL
  Mono: 1.8%
  Neu: 17.8%
  PT: 14 s
  Plat: 117.6 x10_4/uL
  RBC: 642.6 x10_4/ul
  Ret: 8.1%
  WBC: 50.7 x10_2/uL
  KIDNEY_L: 0.8 g
  KIDNEY_R: 0.8 g
  KIDNEY_TOTAL: 1.7 g
  LIVER: 7.2 g
  ALP: 1219.4 IU/L
  ALT: 26.2 IU/L
  AST: 67.6 IU/L
  BUN: 13 mg/dL
  CRE: 0.2 mg/dL
  Ca: 10.7 mg/dL
  Cl: 106.6 meq/L
  DBIL: 0.014 mg/dL
  GLC: 185.2 mg/dL
  IP: 10.5 mg/dL
  K: 4.2 meq/L
  LDH: 57.8 IU/L
  Na: 142.6 meq/L
  PL: 136.6 mg/dL
  RALB: 2.6 g/dL
  TBIL: 0.066 mg/dL
  TC: 78.2 mg/dL
  TP: 5.4 g/dL
  gamma-GTP: 1.4 IU/L
[7]
  TERMINAL_BW: 187.2 g
  APTT: 16.8 s
  Bas: 0.2%
  Eos: 1.4%
  Fbg: 285.2 mg/dL
  Hb: 13.3 g/dL
  Ht: 39%
  Lym: 63.8%
  MCH: 21 pg
  MCHC: 34.1%
  MCV: 61.6 fL
  Mono: 2.8%
  Neu: 31.8%
  PT: 14.3 s
  Plat: 100.5 x10_4/uL
  RBC: 634 x10_4/ul
  Ret: 5%
  WBC: 18 x10_2/uL
  KIDNEY_L: 0.9 g
  KIDNEY_R: 0.9 g
  KIDNEY_TOTAL: 1.8 g
  LIVER: 7.4 g
  ALP: 1374 IU/L
  ALT: 27.8 IU/L
  AST: 67.8 IU/L
  BUN: 17 mg/dL
  CRE: 0.2 mg/dL
  Ca: 10.5 mg/dL
  Cl: 107 meq/L
  DBIL: 0.02 mg/dL
  GLC: 178.8 mg/dL
  IP: 9 mg/dL
  K: 4.6 meq/L
  LDH: 55.2 IU/L
  Na: 142 meq/L
  PL: 138.2 mg/dL
  RALB: 2.5 g/dL
  TBIL: 0.068 mg/dL
  TC: 86.2 mg/dL
  TP: 5.3 g/dL
  gamma-GTP: 1 IU/L
